Laboratory results reported in PubChem BioAssay (NCI).
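Values below derive from 48-hour exposures of cells grown in 96-well plates, with endpoints linearly interpolated between the two concentrations bracketing the appropriate inhibition level. TGI: concentration producing complete growth inhibition.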

Key:
Experiment in all cases: NCI tumour cell line growth inhibition, 48 h
[1] = test system: UACC-257 melanoma
[2] = test system: A549 NSCLC
[3] = test system: MOLT-4 leukemia
[4] = test system: SR leukemia
[5] = test system: SF-539 CNS
[6] = test system: HCT-116 colon
[7] = test system: MDA-N
[8] = test system: NCI-H23 lung
[9] = test system: MDA-MB-435
[10] = test system: OVCAR-4 ovarian
[11] = test system: SF-295 CNS
[12] = test system: U251 CNS
[13] = test system: EKVX NSCLC
[14] = test system: RPMI-8226 leukemia
[15] = test system: M14 melanoma
[16] = test system: T-47D breast
[17] = test system: IGROV1 ovarian
[18] = test system: NCI/ADR-RES ovarian
[19] = test system: HOP-92 NSCLC
[20] = test system: SN12C renal
[21] = test system: K-562 leukemia
[22] = test system: MDA-MB-231 breast
[23] = test system: SNB-75 CNS
[24] = test system: KM12 colon
[25] = test system: HL-60(TB) leukemia
[26] = test system: MALME-3M melanoma
[27] = test system: HCT-15 colon
[28] = test system: LOX IMVI melanoma
[29] = test system: HCC-2998 colon
[30] = test system: OVCAR-8 ovarian
[31] = test system: MCF7 breast
[32] = test system: SK-MEL-2 melanoma
[33] = test system: 786-0 renal
[34] = test system: COLO 205 colon
[35] = test system: SNB-19 CNS
[36] = test system: BT-549 breast
[37] = test system: UO-31 renal
[38] = test system: TK-10 renal
[39] = test system: SK-MEL-28 melanoma
[40] = test system: NCI-H226 lung
[41] = test system: NCI-H522 lung
[42] = test system: ACHN renal
[43] = test system: CAKI-1 renal
[44] = test system: HT29 colon
[45] = test system: DU-145 prostate
[46] = test system: NCI-H460 lung
[47] = test system: HS 578T breast
[48] = test system: SW-620 colon
[49] = test system: CCRF-CEM leukemia
[50] = test system: HOP-62 NSCLC
[51] = test system: OVCAR-3 ovarian
[52] = test system: SK-MEL-5 melanoma
[53] = test system: SK-OV-3 ovarian
[54] = test system: UACC-62 melanoma
[55] = test system: SF-268 CNS
[56] = test system: A498 renal
[57] = test system: RXF 393 renal
[58] = test system: OVCAR-5 ovarian
[59] = test system: PC-3 prostate

O=C(O)C(NCc1ccccc1)C(NCc1ccccc1)C(=O)O (configuration not stated)
TGI [1]: > 100 µM | TGI [2]: > 100 µM | TGI [3]: > 100 µM | TGI [4]: > 100 µM | TGI [5]: > 100 µM | TGI [6]: > 100 µM | TGI [7]: > 100 µM | TGI [8]: > 100 µM | TGI [9]: > 100 µM | TGI [10]: > 100 µM | TGI [11]: > 100 µM | TGI [12]: > 100 µM | TGI [13]: > 100 µM | TGI [14]: > 100 µM | TGI [15]: > 100 µM | TGI [16]: > 100 µM | TGI [17]: > 100 µM | TGI [18]: > 100 µM | TGI [19]: > 100 µM | TGI [20]: > 100 µM | TGI [21]: > 100 µM | TGI [22]: > 100 µM | TGI [23]: > 100 µM | TGI [24]: > 100 µM | TGI [25]: > 100 µM | TGI [26]: > 100 µM | TGI [27]: > 100 µM | TGI [28]: > 100 µM | TGI [29]: > 100 µM | TGI [30]: > 100 µM | TGI [31]: > 100 µM | TGI [32]: > 100 µM | TGI [33]: > 100 µM | TGI [34]: > 100 µM | TGI [35]: > 100 µM | TGI [36]: > 100 µM | TGI [37]: > 100 µM | TGI [38]: > 100 µM | TGI [39]: > 100 µM | TGI [40]: > 100 µM | TGI [41]: > 100 µM | TGI [42]: > 100 µM | TGI [43]: > 100 µM | TGI [44]: > 100 µM | TGI [45]: > 100 µM | TGI [46]: > 100 µM | TGI [47]: > 100 µM | TGI [48]: > 100 µM | TGI [49]: > 100 µM | TGI [50]: > 100 µM | TGI [51]: > 100 µM | TGI [52]: > 100 µM | TGI [53]: > 100 µM | TGI [54]: > 100 µM | TGI [55]: > 100 µM | TGI [56]: > 100 µM

O=C(O)[C@@H]1CCS(=O)(=O)N1
TGI [1]: > 100 µM | TGI [57]: > 100 µM | TGI [2]: > 100 µM | TGI [3]: > 100 µM | TGI [4]: > 100 µM | TGI [5]: > 100 µM | TGI [6]: > 100 µM | TGI [58]: > 100 µM | TGI [7]: > 100 µM | TGI [8]: > 100 µM | TGI [9]: > 100 µM | TGI [10]: > 100 µM | TGI [11]: > 100 µM | TGI [13]: > 100 µM | TGI [15]: > 100 µM | TGI [16]: > 100 µM | TGI [17]: > 100 µM | TGI [18]: > 100 µM | TGI [20]: > 100 µM | TGI [22]: > 100 µM | TGI [24]: > 100 µM | TGI [25]: > 100 µM | TGI [26]: > 100 µM | TGI [27]: > 100 µM | TGI [28]: > 100 µM | TGI [29]: > 100 µM | TGI [30]: > 100 µM | TGI [31]: > 100 µM | TGI [32]: > 100 µM | TGI [33]: > 100 µM | TGI [34]: > 100 µM | TGI [35]: > 100 µM | TGI [59]: > 100 µM | TGI [38]: > 100 µM | TGI [39]: > 100 µM | TGI [41]: > 100 µM | TGI [42]: > 100 µM | TGI [43]: > 100 µM | TGI [44]: > 100 µM | TGI [45]: > 100 µM | TGI [46]: > 100 µM | TGI [48]: > 100 µM | TGI [49]: > 100 µM | TGI [50]: > 100 µM | TGI [51]: > 100 µM | TGI [52]: > 100 µM | TGI [53]: > 100 µM | TGI [54]: > 100 µM | TGI [55]: > 100 µM | TGI [56]: > 100 µM

O=C(Nc1nc(C23CC4CC(CC(C4)C2)C3)cs1)c1cc2ccc(O)cc2oc1=O
TGI [1]: 44.1 µM | TGI [57]: 51.2 µM | TGI [2]: 38.3 µM | TGI [3]: 38.1 µM | TGI [5]: 86.6 µM | TGI [6]: 25.6 µM | TGI [58]: 48.5 µM | TGI [7]: 41.3 µM | TGI [8]: 38.4 µM | TGI [9]: 31.8 µM | TGI [10]: 44 µM | TGI [11]: 48.4 µM | TGI [12]: 28.7 µM | TGI [13]: 43.3 µM | TGI [14]: 32.6 µM | TGI [17]: 33 µM | TGI [18]: 48.5 µM | TGI [19]: 15.3 µM | TGI [20]: 30.4 µM | TGI [21]: 68.2 µM | TGI [22]: 48.7 µM | TGI [24]: 29.9 µM | TGI [25]: 34.6 µM | TGI [26]: 34.5 µM | TGI [27]: 47.6 µM | TGI [28]: 22.2 µM | TGI [29]: 43.3 µM | TGI [30]: 90.9 µM | TGI [31]: 61.3 µM | TGI [33]: 23.8 µM | TGI [34]: 50.4 µM | TGI [35]: 80.6 µM | TGI [37]: 31.2 µM | TGI [59]: 35.4 µM | TGI [38]: > 100 µM | TGI [39]: 47 µM | TGI [40]: 49 µM | TGI [41]: 45.6 µM | TGI [42]: 64.3 µM | TGI [43]: > 100 µM | TGI [44]: 27.4 µM | TGI [45]: > 100 µM | TGI [46]: 52.7 µM | TGI [47]: 37.8 µM | TGI [48]: 22 µM | TGI [49]: 68.1 µM | TGI [50]: 36.8 µM | TGI [51]: 60.5 µM | TGI [52]: 39 µM | TGI [55]: 39.9 µM | TGI [56]: 28.6 µM
